Reference: ChEMBL document CHEMBL1122324, “New antihypertensive cannabinoids” (1983)

Legend:
Settings in all cases: route oral
Rattus norvegicus [1] = assay: percentage decrease in heart rate after 4 hr at a dose of 100 mg/kg administered perorally in rats; type: functional
Rattus norvegicus [2] = assay: Percentage decrease in systolic blood pressure after 4 hr at 100 mg/kg administered perorally in rats; type: functional, Artery
Rattus norvegicus [3] = assay: Percentage decrease in systolic blood pressure after 6 hr at 30 mg/kg administered perorally in rats; type: functional, Artery
Rattus norvegicus [4] = assay: percentage decrease in heart rate after 24 hr at a dose of 30 mg/kg administered perorally in rats.; type: functional
Rattus norvegicus [5] = assay: Percentage decrease in systolic blood pressure after 1 hr at 30 mg/kg administered perorally in rats; type: functional, Artery
Rattus norvegicus [6] = assay: Percentage decrease in systolic blood pressure after 24 hr at 30 mg/kg administered perorally in rats; type: functional, Artery
Rattus norvegicus [7] = assay: Percentage decrease in systolic blood pressure after 4 hr at 30 mg/kg administered perorally in rats; type: functional, Artery
Rattus norvegicus [8] = assay: percentage decrease in heart rate after 6 hr at a dose of 30 mg/kg administered perorally in rats.; type: functional
Rattus norvegicus [9] = assay: percentage decrease in heart rate after 4 hr at a dose of 30 mg/kg administered perorally in rats.; type: functional
Rattus norvegicus [10] = assay: percentage decrease in heart rate after 1 hr at a dose of 30 mg/kg administered perorally in rats.; type: functional
Rattus norvegicus [11] = assay: Percentage decrease in systolic blood pressure (heart rate) after 4 hr at 100 mg/kg administered perorally in rats; type: functional, Artery
Rattus norvegicus [12] = assay: Percentage decrease in systolic blood pressure (heart rate) after 4 hr at 30 mg/kg administered perorally in rats; type: functional, Artery
Rattus norvegicus [13] = assay: percentage decrease in heart rate after 4 hr at a dose of 30 mg/kg administered perorally in rats; type: functional
Rattus norvegicus [14] = assay: percentage decrease in heart rate after 24 hr at a dose of 30 mg/kg administered perorally in rats; type: functional
Rattus norvegicus [15] = assay: percentage decrease in heart rate after 1 hr at a dose of 30 mg/kg administered perorally in rats; type: functional
Rattus norvegicus [16] = assay: percentage decrease in heart rate after 6 hr at a dose of 30 mg/kg administered perorally in rats; type: functional
Rattus norvegicus [17] = assay: Percentage decrease in systolic blood pressure after 24 hr at 10 mg/kg administered perorally in rats; type: functional, Artery
Rattus norvegicus [18] = assay: Percentage decrease in systolic blood pressure after 4 hr at 3 mg/kg administered perorally in rats; type: functional, Artery
Rattus norvegicus [19] = assay: Percentage decrease in systolic blood pressure after 24 hr at 3 mg/kg administered perorally in rats; type: functional, Artery
Rattus norvegicus [20] = assay: Percentage decrease in systolic blood pressure after 4 hr at 10 mg/kg administered perorally in rats; type: functional, Artery
Rattus norvegicus [21] = assay: Percentage decrease in systolic blood pressure after 6 hr at 10 mg/kg administered perorally in rats; type: functional, Artery
Rattus norvegicus [22] = assay: percentage decrease in heart rate after 4 hr at a dose of 10 mg/kg administered perorally in rats.; type: functional
Rattus norvegicus [23] = assay: percentage decrease in heart rate after 24 hr at a dose of 10 mg/kg administered perorally in rats.; type: functional
Rattus norvegicus [24] = assay: percentage decrease in heart rate after 1 hr at a dose of 10 mg/kg administered perorally in rats.; type: functional
Rattus norvegicus [25] = assay: Percentage decrease in systolic blood pressure after 1 hr at 10 mg/kg administered perorally in rats; type: functional, Artery
Rattus norvegicus [26] = assay: percentage decrease in heart rate after 6 hr at a dose of 10 mg/kg administered perorally in rats.; type: functional
Rattus norvegicus [27] = assay: Percentage decrease in systolic blood pressure after 6 hr at 3 mg/kg administered perorally in rats; type: functional, Artery
Rattus norvegicus [28] = assay: percentage decrease in heart rate after 4 hr at a dose of 3 mg/kg administered perorally in rats; type: functional
Rattus norvegicus [29] = assay: percentage decrease in heart rate after 4 hr at a dose of 10 mg/kg administered perorally in rats; type: functional
Rattus norvegicus [30] = assay: percentage decrease in heart rate after 6 hr at a dose of 10 mg/kg administered perorally in rats; type: functional
Rattus norvegicus [31] = assay: percentage decrease in heart rate after 6 hr at a dose of 3 mg/kg administered perorally in rats; type: functional
Rattus norvegicus [32] = assay: percentage decrease in heart rate after 1 hr at a dose of 3 mg/kg administered perorally in rats; type: functional
Rattus norvegicus [33] = assay: Percentage decrease in systolic blood pressure after 1 hr at 3 mg/kg administered perorally in rats; type: functional, Artery
Rattus norvegicus [34] = assay: percentage decrease in heart rate after 24 hr at a dose of 3 mg/kg administered perorally in rats; type: functional
Rattus norvegicus [35] = assay: percentage decrease in heart rate after 1 hr at a dose of 10 mg/kg administered perorally in rats; type: functional
Rattus norvegicus [36] = assay: percentage decrease in heart rate after 24 hr at a dose of 10 mg/kg administered perorally in rats; type: functional

CCCCCC(C)C(C)c1cc(O)c2c(c1)OC(C)(C)C1CCN(C(=O)CN)C=C21 (stereo unspecified)
Heart rate (Rattus norvegicus [1]): 7%
Decrease in Systolic blood pressure (Rattus norvegicus [2]): 12%

CCCCCC(C)C(C)c1cc(O)c2c(c1)OC(C)(C)C1CCN(C(=O)CO)C=C21 (stereo unspecified)
Decrease in Systolic blood pressure (Rattus norvegicus [3]): 1%
Heart rate (Rattus norvegicus [4]): -1%
Decrease in Systolic blood pressure (Rattus norvegicus [5]): 2%
Decrease in Systolic blood pressure (Rattus norvegicus [6]): -1%
Heart rate (Rattus norvegicus [1]): 19%
Decrease in Systolic blood pressure (Rattus norvegicus [7]): -1%
Decrease in Systolic blood pressure (Rattus norvegicus [2]): 49%
Heart rate (Rattus norvegicus [8]): 1%
Heart rate (Rattus norvegicus [9]): -1%
Heart rate (Rattus norvegicus [10]): 6%

CCCCCC(C)C(C)c1cc(O)c2c(c1)OC(C)(C)C1=C2CN(C(=O)CCCO)CC1 (stereo unspecified)
Heart rate (Rattus norvegicus [1]): 19%
Decrease in Systolic blood pressure (Rattus norvegicus [2]): 0%

CC(CCCc1ccc(F)cc1)c1cc(O)c2c(c1)OC(C)(C)C1=C2CN(C(=O)CO)CC1 (stereo unspecified)
Heart rate (Rattus norvegicus [1]): 19%
Decrease in Systolic blood pressure (Rattus norvegicus [11]): 8%
Decrease in Systolic blood pressure (Rattus norvegicus [12]): 10%
Heart rate (Rattus norvegicus [13]): 30%

CCCCCC(C)C(C)c1cc(O)c2c(c1)OC(C)(C)C1CCN(C(=O)CN3CCCCC3)C=C21 (stereo unspecified)
Heart rate (Rattus norvegicus [1]): -8%
Decrease in Systolic blood pressure (Rattus norvegicus [2]): 10%

CCCCCC(C)C(C)c1cc(O)c2c(c1)OC(C)(C)C1=C2CN(C(=O)CCO)CC1 (stereo unspecified)
Heart rate (Rattus norvegicus [1]): -1%
Decrease in Systolic blood pressure (Rattus norvegicus [2]): 6%

CCCCCC(C)C(C)c1cc(O)c2c(c1)OC(C)(C)C1=C2CN(C(=O)CN)CC1 (stereo unspecified)
Heart rate (Rattus norvegicus [14]): 10%
Heart rate (Rattus norvegicus [15]): 9%
Decrease in Systolic blood pressure (Rattus norvegicus [3]): 8%
Decrease in Systolic blood pressure (Rattus norvegicus [5]): 12%
Decrease in Systolic blood pressure (Rattus norvegicus [6]): 2%
Decrease in Systolic blood pressure (Rattus norvegicus [7]): 10%
Heart rate (Rattus norvegicus [16]): 13%
Heart rate (Rattus norvegicus [13]): -5%

CCCCCC(C)C(C)c1cc(OC(=O)COC(C)=O)c2c(c1)OC(C)(C)C1=C2CN(C(=O)COC(C)=O)CC1 (stereo unspecified)
Decrease in Systolic blood pressure (Rattus norvegicus [12]): 10%

C#CCN1CCC2=C(C1)c1c(O)cc(C(C)C(C)CCCCC)cc1OC2(C)C (stereo unspecified)
Decrease in Systolic blood pressure (Rattus norvegicus [17]): 27%
Decrease in Systolic blood pressure (Rattus norvegicus [18]): 7%
Decrease in Systolic blood pressure (Rattus norvegicus [19]): 4%
Decrease in Systolic blood pressure (Rattus norvegicus [20]): 23%

CCCCCC(C)C(C)c1cc(O)c2c(c1)OC(C)(C)C1=C2CN(C(=O)CN2CCOCC2)CC1 (stereo unspecified)
Decrease in Systolic blood pressure (Rattus norvegicus [17]): 2%
Decrease in Systolic blood pressure (Rattus norvegicus [21]): 3%
Heart rate (Rattus norvegicus [22]): 7%
Decrease in Systolic blood pressure (Rattus norvegicus [3]): 27%
Heart rate (Rattus norvegicus [23]): 8%
Heart rate (Rattus norvegicus [4]): 0%
Decrease in Systolic blood pressure (Rattus norvegicus [5]): 10%
Decrease in Systolic blood pressure (Rattus norvegicus [6]): 10%
Decrease in Systolic blood pressure (Rattus norvegicus [20]): 8%
Heart rate (Rattus norvegicus [1]): 37%
Decrease in Systolic blood pressure (Rattus norvegicus [7]): 18%
Decrease in Systolic blood pressure (Rattus norvegicus [2]): 40%
Heart rate (Rattus norvegicus [8]): 20%
Heart rate (Rattus norvegicus [24]): -21%
Heart rate (Rattus norvegicus [9]): 16%
Decrease in Systolic blood pressure (Rattus norvegicus [25]): 4%
Heart rate (Rattus norvegicus [26]): 11%
Heart rate (Rattus norvegicus [10]): -2%

CC(CCCc1ccc(F)cc1)c1cc(O)c2c(c1)OC(C)(C)C1=C2CN(C(=O)CCCO)CC1 (stereo unspecified)
Heart rate (Rattus norvegicus [14]): 15%
Decrease in Systolic blood pressure (Rattus norvegicus [27]): 9%
Heart rate (Rattus norvegicus [15]): 2%
Decrease in Systolic blood pressure (Rattus norvegicus [17]): 17%
Decrease in Systolic blood pressure (Rattus norvegicus [21]): 19%
Heart rate (Rattus norvegicus [28]): 0%
Heart rate (Rattus norvegicus [29]): 18%
Decrease in Systolic blood pressure (Rattus norvegicus [3]): 12%
Heart rate (Rattus norvegicus [30]): 16%
Heart rate (Rattus norvegicus [31]): 5%
Decrease in Systolic blood pressure (Rattus norvegicus [18]): 5%
Decrease in Systolic blood pressure (Rattus norvegicus [5]): 11%
Decrease in Systolic blood pressure (Rattus norvegicus [19]): -8%
Decrease in Systolic blood pressure (Rattus norvegicus [6]): 22%
Heart rate (Rattus norvegicus [32]): -17%
Decrease in Systolic blood pressure (Rattus norvegicus [20]): 28%
Heart rate (Rattus norvegicus [1]): 20%
Decrease in Systolic blood pressure (Rattus norvegicus [7]): 26%
Decrease in Systolic blood pressure (Rattus norvegicus [2]): 32%
Decrease in Systolic blood pressure (Rattus norvegicus [33]): -6%
Heart rate (Rattus norvegicus [16]): 9%
Heart rate (Rattus norvegicus [34]): -24%
Heart rate (Rattus norvegicus [13]): 23%
Decrease in Systolic blood pressure (Rattus norvegicus [25]): 11%
Heart rate (Rattus norvegicus [35]): 3%
Heart rate (Rattus norvegicus [36]): 6%

CCCCCC(C)C(C)c1cc(O)c2c(c1)OC(C)(C)C1CCN(C(=O)CO)CC21 (stereo unspecified)
Heart rate (Rattus norvegicus [1]): 2%
Decrease in Systolic blood pressure (Rattus norvegicus [2]): 0%
